# Reference: PubChem BioAssay AID1963844 (Molecular Pharmacology Branch, DTP, NCI, 2024)
# Tested on: 422866-222-R5-J1-PDC complex spheroid viability
# Experiment: Anticancer human tumor 422866-222-R5-J1-PDC patient-derived pancreatic adenocarcinoma cell line growth inhibition [POLQ]
# Conditions: for IC50: curve of first compound; for viability, T/C: stronger effect = lower value
# Method: Multicellular complex tumor spheroid response to Polymerase (POL) inhibitors (novobiocin, ART-558, RP6685) in combination with a variety of drugs and investigational agents in selected tumor cell lines
# The POL inhibitors (novobiocin, ART-558, and RP6685) were evaluated both individually and in combination with standard of care and investigational anticancer small molecules within a complex spheroid model of solid tumors. . Complex spheroids include a stromal component modeled by human endothelial cells (HUVEC) and fibroblasts modeled by human mesenchymal stem cells (MSCs). The concentration ranges selected for each drug and investigational agent were based upon clinically achievable concentrations if the clinical Cmax of the agent was known.
# Compounds. The drugs and investigational agents: novobiocin (NSC847541), ART-558 (NSC835418), RP-6685 (NSC848927), peposertib (NSC802822), ceralasertib (NSC780249), elimusertib (NSC800525), camonsertib (NSC841442), AZD-1390 (NSC803789), olaparib (NSC753686), talazoparib (NSC767125), rucaparib (NSC756644), sotorasib (NSC818433), MRTX-1133 (NSC836407), SN-38 (NSC673596), topotecan (NSC609699), epotoside (NSC141540), doxorubicin (NSC123127), gemcitabine (NSC613327), 5-fluorouracil (NSC19893), paclitaxel (NSC125973), vemurafenib (NSC761431), MSA-2 (NSC828583), SN-011 (NSC837082), adavosertib (NSC754352), prexasertib (NSC758257), carboplatin (NSC241240) and oxaliplatin (NSC266046), were obtained from the National Cancer Institute (NCI) Developmental Therapeutics Program Chemical Repository (21). The FDA-approved anticancer drug set is available from the Developmental Therapeutics Program at https://dtp.cancer.gov/organization/dscb/obtaining/. […] The stock solutions were prepared in dimethyl sulfoxide (DMSO, Sigma-Aldrich, St. Louis, MO, cat. D2650), except for the platinum compounds which were prepared in saline (Quality Biological, Gaithersburg, MD, cat. 114-055-101), at 800-fold the tested concentration and stored at -70 degrees C prior to their use. All drugs and investigational agents were tested over a range starting from a high concentration at or near the clinical Cmax and decreasing in half-log increments. If the clinical Cmax for an agent had not been determined, the highest concentration tested was 10 microM, except for SN-38, which was tested at a high concentration of 1 microM.
# Cell Culture. All cells were maintained in an incubator at 37 degrees C and 5% CO2 with 95% humidity. The PDC lines were cultured according to standard operating procedures established by the NCI PDMR (https://pdmr.cancer.gov). Table 3 of the manuscript, lists the cell lines along with the number of the three cell types plated to form the mct-spheroids and media for tumor cell growth. After thawing, all PDC lines, except 997537-175-T-J1-PDC and 415267-285-R-J2-PDC, were cultured in Matrigel-coated flasks prepared with a working solution of 1X Ham's F-12 nutrient mix, without supplementation (Thermo Fisher Scientific, cat. 11765054), 100 U/mL penicillin-streptomycin (Thermo Fisher Scientific, cat. 15140122), and 2.5% Matrigel (Corning Inc., Corning, NY, cat. 354248) for the first three passages. The two PDC lines 997537-175-T-J1-PDC and 415267-285-R-J2-PDC were cultured on uncoated flasks. The 857933-349-R-J2-PDC line was cultured in 6C/Colon 1B media containing advanced DMEM/F-12 (Thermo Fisher Scientific, cat. 12634028), 10 mM HEPES (Thermo Fisher Scientific, cat. 15630080), 1X GlutaMAX supplement (Thermo Fisher Scientific, cat. 35050061), 0.1 mg/mL primocin (InvivoGen, San Diego, CA, cat. ant-pm-2), 10% defined fetal bovine serum, heat inactivated (HyClone Laboratories Inc., Logan, UT, cat. SH30070.03HI), 50% L-WRN conditioned media (ATCC, cat. CRL-3276), 1.25 mM N-Acetyl-L-cysteine (Sigma-Aldrich, cat. A9165), 10 mM nicotinamide (Sigma-Aldrich, cat. N0636), 1X B-27 supplement (Thermo Fisher Scientific, cat. 17504044), 1X N-2 supplement (Thermo Fisher Scientific, cat. […]
# 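Note: spheroids exposed to compounds for one week before readout.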
# 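Throughout, for viability, T/C: percent of DMSO vehicle wells luminescence so 100% = untreated viability.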
structure (smiles),measurement,setting,value
Cn1ncnc1[C@H]1c2n[nH]c(=O)c3cc(F)cc(c23)N[C@@H]1c1ccc(F)cc1 + COC1C(OC(N)=O)C(O)C(Oc2ccc3c(O)c(NC(=O)c4ccc(O)c(CC=C(C)C)c4)c(=O)oc3c2C)OC1(C)C,IC50,second compound 0.0316 µM,> 100 nM
same,IC50,second compound 0.1 µM,> 100 nM
same,IC50,second compound 0.316 µM,> 100 nM
same,IC50,second compound 1 µM,> 100 nM
same,IC50,second compound 3.16 µM,> 100 nM
same,IC50,second compound 10 µM,> 100 nM
same,"viability, T/C","second compound 0.0316 µM, first compound 0.000316 µM",108%
same,"viability, T/C","second compound 0.0316 µM, first compound 0.001 µM",100%
same,"viability, T/C","second compound 0.0316 µM, first compound 0.00316 µM",90%
same,"viability, T/C","second compound 0.0316 µM, first compound 0.01 µM",88.6%
same,"viability, T/C","second compound 0.0316 µM, first compound 0.0316 µM",86.6%
same,"viability, T/C","second compound 0.0316 µM, first compound 0.1 µM",83.1%
same,"viability, T/C","second compound 0.1 µM, first compound 0.000316 µM",119%
same,"viability, T/C","second compound 0.1 µM, first compound 0.001 µM",87.2%
same,"viability, T/C","second compound 0.1 µM, first compound 0.00316 µM",104%
same,"viability, T/C","second compound 0.1 µM, first compound 0.01 µM",87%
same,"viability, T/C","second compound 0.1 µM, first compound 0.0316 µM",88.5%
same,"viability, T/C","second compound 0.1 µM, first compound 0.1 µM",90.3%
same,"viability, T/C","second compound 0.316 µM, first compound 0.000316 µM",96.1%
same,"viability, T/C","second compound 0.316 µM, first compound 0.001 µM",104%
same,"viability, T/C","second compound 0.316 µM, first compound 0.00316 µM",98.8%
same,"viability, T/C","second compound 0.316 µM, first compound 0.01 µM",78.9%
same,"viability, T/C","second compound 0.316 µM, first compound 0.0316 µM",87.3%
same,"viability, T/C","second compound 0.316 µM, first compound 0.1 µM",85.3%
same,"viability, T/C","second compound 1 µM, first compound 0.000316 µM",99%
same,"viability, T/C","second compound 1 µM, first compound 0.001 µM",110%
same,"viability, T/C","second compound 1 µM, first compound 0.00316 µM",100%
same,"viability, T/C","second compound 1 µM, first compound 0.01 µM",85.4%
same,"viability, T/C","second compound 1 µM, first compound 0.0316 µM",89.6%
same,"viability, T/C","second compound 1 µM, first compound 0.1 µM",86.6%
same,"viability, T/C","second compound 3.16 µM, first compound 0.000316 µM",98%
same,"viability, T/C","second compound 3.16 µM, first compound 0.001 µM",87.1%
same,"viability, T/C","second compound 3.16 µM, first compound 0.00316 µM",105%
same,"viability, T/C","second compound 3.16 µM, first compound 0.01 µM",100%
same,"viability, T/C","second compound 3.16 µM, first compound 0.0316 µM",89.8%
same,"viability, T/C","second compound 3.16 µM, first compound 0.1 µM",95.6%
same,"viability, T/C","second compound 10 µM, first compound 0.000316 µM",78.8%
same,"viability, T/C","second compound 10 µM, first compound 0.001 µM",86.2%
same,"viability, T/C","second compound 10 µM, first compound 0.00316 µM",97.1%
same,"viability, T/C","second compound 10 µM, first compound 0.01 µM",92.3%
same,"viability, T/C","second compound 10 µM, first compound 0.0316 µM",88.7%
same,"viability, T/C","second compound 10 µM, first compound 0.1 µM",87.7%
